Measurements from patent US9050295B2, “Composition for treatment of tuberculosis” (ETH Zurich, priority 2007, dated 2015).
Entries after “also recorded” stand apart in the source; their conditions may differ.

Legend:
[1] = biological target: T1, EthR-VP16 binding to OethR (Mycobacterium bovis, UniProt Q7TVI1); test: cell-based; format: cell-based, M. tuberculosis
[2] = biological target: T1, EthR-VP16 binding to OethR; format: in vivo; settings: mice, 625 μl/kg injected 1 and 25 h post implantation, serum at 48 h
[3] = biological target: EthR-OethR interaction (Mycobacterium bovis, UniProt Q7TVI1); format: binding, M. tuberculosis; settings: ELISA, E. coli cell lysate, OD450
[4] = test system: E-ETR interaction; test: Specificity control ELISA, macrolide-dependent repressor E and operator ETR; format: binding; settings: ELISA set-up as FIG. 2B
Description: To exclude that 2-phenylethyl butyrate indiscriminatingly modulates protein-DNA interactions the macrolide-dependent repressor-operator configuration is challenged with this compound in an identical ELISA set-up as shown in FIG. 2B. The E-ETR interaction is insensitive to 2-phenylethyl butyrate (PEB) and can exclusively be abolished in the presence of erythromycin (EM, 5 μg/ml).
The repressor protein E binds to its cognate operator sequence ETR and is released thereof in the presence of macrolide antibiotics like erythromycin as described in U.S. Pat. No. 7,273,723.
EthR-his6 is produced as previously described for E-his6 [Weber, C. C. et al., supra] with the exception that the biotinylated operator sequence (OethR) is incubated with a 100 μl streptavidin agarose bead suspension (Novagen, Madison, Wis., USA, cat. no. 69203) for 1 h at 4° C. while rotating.

[5] = test system: M. bovis BCG; format: cell-based
[6] = test system: M. tuberculosis H37Rv; format: cell-based
[7] = mouse, in vivo, ip
[8] = test system: HEK-293; settings: HEK-293 with constitutive SEAP expression, 0-3.2 mM, 48 h
[9] = HEK-293 with EthR-based gene circuit, 0-3.2 mM, 48 h

T1 sequence (Q7TVI1 whole entry, looked up): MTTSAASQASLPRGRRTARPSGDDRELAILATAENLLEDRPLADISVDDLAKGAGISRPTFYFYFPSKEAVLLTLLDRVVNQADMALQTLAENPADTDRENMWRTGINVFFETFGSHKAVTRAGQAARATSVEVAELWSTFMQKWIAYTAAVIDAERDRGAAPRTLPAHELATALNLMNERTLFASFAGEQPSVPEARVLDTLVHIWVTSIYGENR
Sequence of EthR-OethR interaction (Q7TVI1 whole entry, looked up): as above

In the case of `CCCC(=O)OCCc1ccccc1` [2-Phenylethyl butyrate], the IC50 [1] is reported as 500 µM, the SEAP expression [1, 9] is reported as “significant decrease in SEAP expression” and the SEAP serum levels [2] is reported as 0.21±0.03 U/L. The “modulation of the EthR-OethR interaction” value [3] was “exclusively and specifically modulates the EthR-OethR interaction”, the E-ETR interaction ([4]; 2-phenylethyl butyrate) was “insensitive” and the “growth inhibition of M. bovis BCG in combination with ethionamide” value ([5]; 0.5 and 2 mM with sub-inhibitory ethionamide 0.25 and 0.5 μg/ml) was “dose-dependently inhibited; also recorded: Synergistic effect”. For the same compound, the “growth inhibitory effect alone, M. bovis BCG” value ([5]; without ethionamide) was “does not show any growth inhibitory effect”, the “growth inhibition of M. tuberculosis H37Rv in combination with ethionamide” value [6] was “dose-dependently inhibited; also recorded: Synergistic effect” and the “growth inhibitory effect alone, M. tuberculosis H37Rv” value [6] was “does not show any growth inhibitory effect”. The “inflammation at the injection site” value [7] was “no inflammation at the injection site”.
In the case of `CCC(=O)OCCCc1ccccc1` [3-Phenylpropyl propionate], the SEAP expression [1, 9] is reported as “significant decrease in SEAP expression”.
For `CC(=O)CCc1ccccc1` [4-Phenyl-2-butanone], the SEAP expression [1, 9] was “significant decrease in SEAP expression” and the cytotoxicity [8] was “does not correlate with cytotoxicity”.
For `CC(=O)OCc1ccccc1` [Benzyl acetate], the SEAP expression [1, 9] was “significant decrease in SEAP expression”.
With `CCCCCCCCCCCCCCCCOC(=O)CCCCCCC` [Hexadecyl octanoate, reference compound] the SEAP expression ([1]; HEK-293 containing pWW489 and pWW491, 10 mM) was “fails to decrease SEAP expression”.
For `CC[C@H]1OC(=O)[C@H](C)[C@@H](O[C@H]2C[C@@](C)(OC)[C@@H](O)[C@H](C)O2)[C@H](C)[C@@H](O[C@@H]2O[C@H](C)C[C@H](N(C)C)[C@H]2O)[C@](C)(O)C[C@@H](C)C(=O)[C@H](C)[C@@H](O)[C@]1(C)O` [erythromycin, reference compound], the E-ETR interaction ([4]; 5 μg/ml) was “abolished”.
